Experimental data: ChEMBL document CHEMBL1123242, “Derivatives of 1-(1,3-benzodioxol-5-yl)-2-butanamine: representatives of a novel therapeutic class” (1986)

How the values were obtained:
Assay type in all cases: functional
Rattus norvegicus [1] = assay: Compound was tested for hallucinogenic activity in rats at 0.69 dose(mg/kg); Number of rats selecting the LSD lever/ number of rats responding (2/9)
Rattus norvegicus [2] = assay: Compound was tested for hallucinogenic activity in rats at 4.14 dose (mg/kg); 2/4, highest dose tested
Rattus norvegicus [3] = assay: Compound was tested for hallucinogenic activity in rats at 1.72 dose(mg/kg); Number of rats selecting the LSD lever/ number of rats responding (4/8)
Rattus norvegicus [4] = assay: Compound was tested for hallucinogenic activity in rats at dose 1.38(mg/kg); Number of rats selecting the LSD lever/ number of rats responding (2/8)
Rattus norvegicus [5] = assay: Compound was tested for hallucinogenic activity in rats at 3.44 dose (mg/kg); Number of rats selecting the LSD lever/ number of rats responding (4/8)
Rattus norvegicus [6] = assay: Compound was tested for hallucinogenic activity in rats at the dose 0.34(mg/kg); Number of rats selecting the LSD lever/ number of rats responding (3/8
Rattus norvegicus [7] = assay: Compound was tested for hallucinogenic activity in rats at the dose 0.17(mg/kg); Number of rats selecting the LSD lever/ number of rats responding (1/8)
Rattus norvegicus [8] = assay: Compound was tested for hallucinogenic activity in rats at 2.41 dose (mg/kg); Number of rats selecting the LSD lever/ number of rats responding (3/8)
Rattus norvegicus [9] = assay: Compound was tested for hallucinogenic activity in rats at 2.07dose (mg/kg); Number of rats selecting the LSD lever/ number of rats responding (3/8)
Rattus norvegicus [10] = assay: Compound was tested for hallucinogenic activity in rats at 2.76 dose (mg/kg); Number of rats selecting the LSD lever/ number of rats responding (3/9)
Rattus norvegicus [11] = assay: Compound was tested for hallucinogenic activity in rats at 15 dose(mg/kg); 0/0, highest dose tested
Rattus norvegicus [12] = assay: Compound was tested for hallucinogenic activity in rats at the dose 0.37(mg/kg); Number of rats selecting the LSD lever/ number of rats responding (0/8)
Rattus norvegicus [13] = assay: Compound was tested for hallucinogenic activity in rats at 1.95 dose(mg/kg); Number of rats selecting the LSD lever/ number of rats responding (1/7)
Rattus norvegicus [14] = assay: Compound was tested for hallucinogenic activity in rats at the dose 0.73(mg/kg); Number of rats selecting the LSD lever/ number of rats responding (0/8)
Rattus norvegicus [15] = assay: Compound was tested for hallucinogenic activity in rats at 2.07 dose(mg/kg); 0/0, highest dose tested
Rattus norvegicus [16] = assay: Compound was tested for hallucinogenic activity in rats at the dose 0.69(mg/kg); Number of rats selecting the LSD lever/ number of rats responding (0/8)
Rattus norvegicus [17] = assay: Compound was tested for hallucinogenic activity in rats at 1.38 dose(mg/kg); Number of rats selecting the LSD lever/ number of rats responding (3/8)
Rattus norvegicus [18] = assay: Compound was tested for hallucinogenic activity in rats at 1.84 dose(mg/kg); 2/4, highest dose tested
Rattus norvegicus [19] = assay: Compound was tested for hallucinogenic activity in rats at the dose 0.34 (mg/kg); Number of rats selecting the LSD lever/ number of rats responding (0/8)
Rattus norvegicus [20] = assay: Compound was tested for hallucinogenic activity in rats at 1.38 dose(mg/kg); Number of rats selecting the LSD lever/ number of rats responding (2/8)
Rattus norvegicus [21] = assay: Compound was tested for hallucinogenic activity in rats at 1.84 dose(mg/kg); Number of rats selecting the LSD lever/ number of rats responding (3/8)
Rattus norvegicus [22] = assay: Compound was tested for hallucinogenic activity in rats at 2.19 dose(mg/kg); 0/1, highest dose tested
Rattus norvegicus [23] = assay: Compound was tested for hallucinogenic activity in rats at the dose 0.34 (mg/kg); Number of rats selecting the LSD lever/ number of rats responding (2/8)
Rattus norvegicus [24] = assay: Compound was tested for hallucinogenic activity in rats at the dose 0 (mg/kg)
Rattus norvegicus [25] = assay: Compound was tested for hallucinogenic activity in rats at 0.63 dose(mg/kg); Number of rats selecting the LSD lever/ number of rats responding (2/8)
Rattus norvegicus [26] = assay: Compound was tested for hallucinogenic activity in rats at 0.32dose (mg/kg); Number of rats selecting the LSD lever/ number of rats responding (0/8)
Rattus norvegicus [27] = assay: Compound was tested for hallucinogenic activity in rats at 1.29 dose(mg/kg); Number of rats selecting the LSD lever/ number of rats responding (5/8)
Rattus norvegicus [28] = assay: Compound was tested for hallucinogenic activity in rats at 1.72 dose(mg/kg); Number of rats selecting the LSD lever/ number of rats responding (7/8)
Rattus norvegicus [29] = assay: Compound was tested for hallucinogenic activity in rats at 0.32(mg/kg)
Rattus norvegicus [30] = assay: Compound was tested for hallucinogenic activity in rats at the dose of 0.01(mg/kg); Number of rats selecting the LSDlever/ number of rats responding (4/8)
Rattus norvegicus [31] = assay: Compound was tested for hallucinogenic activity in rats at the dose 0.0025 (mg/kg)
Rattus norvegicus [32] = assay: Compound was tested for hallucinogenic activity in rats at the dose of 0.005(mg/kg); Number of rats selecting the LSDlever/ number of rats responding (4/8)
Rattus norvegicus [33] = assay: Compound was tested for hallucinogenic activity in rats at the dose of 0.08(mg/kg); Number of rats selecting the LSDlever/ number of rats responding (8/8)
Rattus norvegicus [34] = assay: Compound was tested for hallucinogenic activity in rats at the dose of 0.04(mg/kg); Number of rats selecting the LSDlever/ number of rats responding (6/8)
Rattus norvegicus [35] = assay: Compound was tested for hallucinogenic activity in rats at the dose of 0.02(mg/kg); Number of rats selecting the LSDlever/ number of rats responding (5/8)
Rattus norvegicus [36] = assay: Compound was tested for hallucinogenic activity in rats at the dose of 0.0025 (mg/kg); Number of rats selecting the LSDlever/ number of rats responding (0/8)

CN[C@H](C)Cc1ccc2c(c1)OCO2
Result (Rattus norvegicus [1]): 2
Result (Rattus norvegicus [2]): 2
Result (Rattus norvegicus [3]): 4
Result (Rattus norvegicus [4]): 2
Result (Rattus norvegicus [5]): 4
Result (Rattus norvegicus [6]): 3
Result (Rattus norvegicus [7]): 1
Result (Rattus norvegicus [8]): 3
Result (Rattus norvegicus [9]): 3
Result (Rattus norvegicus [10]): 3

CC[C@@H](Cc1ccc2c(c1)OCO2)NC
Result (Rattus norvegicus [11]): 0

CCC(Cc1ccc2c(c1)OCO2)NC (racemic)
Result (Rattus norvegicus [12]): 0
Result (Rattus norvegicus [13]): 1
Result (Rattus norvegicus [14]): 0
Result (Rattus norvegicus [15]): 0

CCC(N)Cc1ccc2c(c1)OCO2 (racemic)
Result (Rattus norvegicus [16]): 0
Result (Rattus norvegicus [17]): 3
Result (Rattus norvegicus [18]): 2
Result (Rattus norvegicus [19]): 0

CNC(C)Cc1ccc2c(c1)OCO2 (racemic) [MIDOMAFETAMINE]
Result (Rattus norvegicus [16]): 0
Result (Rattus norvegicus [20]): 2
Result (Rattus norvegicus [21]): 3
Result (Rattus norvegicus [22]): 0
Result (Rattus norvegicus [23]): 2

CC(N)Cc1ccc2c(c1)OCO2 (racemic) [TENAMFETAMINE]
ED50 (Rattus norvegicus [24]): 4.52 µmol/kg
Result (Rattus norvegicus [25]): 2
Result (Rattus norvegicus [26]): 0
Result (Rattus norvegicus [27]): 5
Result (Rattus norvegicus [28]): 7
ED50 (Rattus norvegicus [29]): 0.97 mg/kg

CCN(CC)C(=O)[C@@H]1C=C2c3cccc4[nH]cc(c34)C[C@H]2N(C)C1 [LYSERGIDE]
Result (Rattus norvegicus [30]): 4
ED50 (Rattus norvegicus [31]): 0.025 µmol/kg
Result (Rattus norvegicus [32]): 4
Result (Rattus norvegicus [33]): 8
Result (Rattus norvegicus [34]): 6
Result (Rattus norvegicus [35]): 5
Result (Rattus norvegicus [36]): 0
